Here are results for 5 molecules from ChEMBL document CHEMBL1136533, “Hemisynthesis and preliminary evaluation of novel endocannabinoid analogues” (Bioorg Med Chem Lett, 2003).

The pKi is the negative decadic logarithm of the Ki, by convention in mol/L. The low end stands for a high Ki, the high end for a low Ki.

Experiment [1] deals with Cannabinoid receptor 1 (Rattus norvegicus) (UniProt P20272). Briefly: Percentage affinity towards Cannabinoid receptor 1 using [3H]CP-55940 as radioligand in rat forebrain membranes. Format: cell membranes. The settings on record: Membrane.
In another experiment the target is Cannabinoid receptor 1 (Rattus norvegicus, UniProt P20272). The experiment is described as follows: Binding affinity towards Cannabinoid receptor 1 in rat forebrain membranes using [3H]CP-55940 as radioligand. Format: cell membranes, Membrane.
Experiment [2] concerns the target T1, Fatty-acid amide hydrolase 1 (Rattus norvegicus) (UniProt P97612).
T1 sequence (whole entry): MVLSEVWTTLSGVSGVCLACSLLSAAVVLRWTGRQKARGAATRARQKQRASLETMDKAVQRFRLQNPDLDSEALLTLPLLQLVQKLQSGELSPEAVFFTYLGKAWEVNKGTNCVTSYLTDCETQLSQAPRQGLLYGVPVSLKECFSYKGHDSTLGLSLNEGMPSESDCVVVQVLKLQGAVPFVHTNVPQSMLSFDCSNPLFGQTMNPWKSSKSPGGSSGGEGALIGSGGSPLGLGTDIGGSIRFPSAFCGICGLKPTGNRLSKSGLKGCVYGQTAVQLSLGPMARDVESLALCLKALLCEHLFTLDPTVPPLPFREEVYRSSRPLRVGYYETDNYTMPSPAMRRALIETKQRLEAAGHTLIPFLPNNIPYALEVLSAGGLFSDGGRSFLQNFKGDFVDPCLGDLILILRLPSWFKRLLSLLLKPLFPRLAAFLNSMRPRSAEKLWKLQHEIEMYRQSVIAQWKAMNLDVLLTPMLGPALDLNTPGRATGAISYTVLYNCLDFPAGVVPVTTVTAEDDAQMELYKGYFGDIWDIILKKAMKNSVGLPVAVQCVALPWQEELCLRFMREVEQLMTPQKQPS
Briefly: Inhibitory effect on the Fatty-acid amide hydrolase (FAAH) activity was determined by % inhibition of anandamide hydrolysis at 10 uM concentration of compound. Format: functional.

Experiment [3] has as its target T2, Fatty-acid amide hydrolase 1 (Rattus norvegicus, UniProt P97612).
T2 sequence (P97612 whole entry): T1 sequence (whole entry)
The experiment is described as follows: Binding affinity towards Fatty-acid amide hydrolase (FAAH) in rat forebrain membranes. Format: cell membranes, Membrane.

For experiment [4], the target named is T1, Fatty-acid amide hydrolase 1 (Rattus norvegicus). Briefly: Inhibitory effect on the Fatty-acid amide hydrolase (FAAH) activity was determined by % inhibition of anandamide hydrolysis at 1 uM concentration of compound. The format is functional.

Each structure is given as a SMILES string. pKi: −log10 of the molar value.

Cannabinoid receptor 1 (Rattus norvegicus), sequence (P20272 whole entry): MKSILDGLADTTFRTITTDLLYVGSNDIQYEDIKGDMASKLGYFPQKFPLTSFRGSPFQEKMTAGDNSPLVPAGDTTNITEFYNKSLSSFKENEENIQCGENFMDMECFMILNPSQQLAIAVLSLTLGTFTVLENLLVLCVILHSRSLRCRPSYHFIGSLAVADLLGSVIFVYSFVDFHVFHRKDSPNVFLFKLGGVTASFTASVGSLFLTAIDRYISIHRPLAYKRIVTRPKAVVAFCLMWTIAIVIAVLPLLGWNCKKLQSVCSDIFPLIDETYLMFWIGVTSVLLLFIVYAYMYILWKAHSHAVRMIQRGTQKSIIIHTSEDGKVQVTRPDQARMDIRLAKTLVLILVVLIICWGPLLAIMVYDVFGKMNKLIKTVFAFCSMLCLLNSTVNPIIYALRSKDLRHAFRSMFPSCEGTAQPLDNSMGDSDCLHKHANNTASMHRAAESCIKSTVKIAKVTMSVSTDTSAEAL
Cannabinoid receptor 1, sequence (P20272 whole entry): as above

Molecule `CCCCC/C=C\C/C=C\C/C=C\C/C=C\CCC(C)(C)C(=O)OCCO` returned an Affinity in experiment [1] of 100%. Further, the pKi on Cannabinoid receptor 1 is less than 5.00; in experiment [3], 5.68. Moreover, the Inhibition of anandamide hydrolysis in experiment [2] came out at 12%; in experiment [4], 90%.

In the case of `CCCCC/C=C\C/C=C\C/C=C\C/C=C\CCCC(=O)CCCO`, the Affinity in experiment [1] worked out at 38%. Moreover, the pKi on Cannabinoid receptor 1 is 6.44. Besides, the Inhibition of anandamide hydrolysis was determined as 78% in experiment [2] and 91% in experiment [4].

For `CCCCC/C=C\C/C=C\C/C=C\C/C=C\CCCC(=O)OCCO`, the Affinity in experiment [1] turned out to be 83%. This molecule also showed a pKi at Cannabinoid receptor 1 of less than 5.00. Further, the Inhibition of anandamide hydrolysis in experiment [2] came to 70%; in experiment [4] it was 100%.

In turn, `CCCCC/C=C\C/C=C\CCCCCCCC(=O)CCCO` returned an Affinity in experiment [1] of 72%. Moreover, the Inhibition of anandamide hydrolysis in experiment [2] and in experiment [4] was 100% each time.

For the molecule `CCCCC/C=C\C/C=C\C/C=C\C/C=C\CCCC(=O)NCCO` [ANANDAMIDE], the Affinity in experiment [1] was found to be 19%. This molecule had a pKi in experiment [3] of 5.52.
